Reference: patent EP0595183B1, “Hydantoin derivatives, salts thereof and maillard reaction inhibitors comprising the same” (SANWA KAGAKU KENKYUSHO CO., LTD., priority 1992, dated 1994)

Assays:
[1] = test system: rats; assay: 4 week subacute toxicity by oral administration; format: in vivo; settings: rat (male)
Text: (§1) Acute and 4 week subacute toxicities of exemplar compounds according to the invention were checked by oral administration thereof and using rats.

[2] = Acute toxicity by oral administration; settings: in vivo
Text: as §1

[3] = test system: bovine serum albumin (BSA); assay: Inhibition of fluorescence development (Maillard reaction products) in BSA/fructose incubation; format: biochemical; settings: compound 5mM, BSA 10mg/ml, fructose 400mM, pH 7.4, 20% DMSO, 37°C for 24 hours; fluorescence ex 350nm / em 428nm
Method: A testing or control compound (5mM), bovine serum albumin (BSA, 10mg/ml) and fructose (400mM) were dissolved in […] Na-phosphate buffer (pH 7.4) containing 20% DMSO. The mixture was incubated at 37°C for 24 hours.
The incubated mixture was diluted to 10 folds in volume with distilled water and measured fluorescense intensity at excitation wavelength of 350nm and emission wavelength of 428nm with a HITACHI F-4010 spectrofluorometer. The inhibition ratio of fluorescense development was estimated with the following equation. Inhibition (%) = {[F1-F3-F4)- (F2-F3-F4)]/(F1-F3-F4)} x 100 [formula] wherein, Inhibition : Inhibition ratio, F1 : Fluorescense intensity of the solution containing no compound, F2 : Fluorescense intensity of the solution containing the compound, F3 : Fluorescense intensity of the solution containing only BSA, and F4 : Fluorescense intensity of the solution containing only fructose.

[4] = test system: BSA; assay: Inhibition of cross-linking of proteins (SDS-PAGE), BSA with fructose; format: biochemical; settings: Protein BSA 10mg/ml, compound 5mM, fructose 400mM, pH 7.4, 37°C for 7 days
Method: (§2) A testing or control compound (5mM), fructose (400mM) and a protein of either BSA (10mg/ml) or lysozyme (10mg/ml) were dissolved in 0.5M Na-phosphate buffer (pH 7.4). The mixture was incubated at 37°C for 7 days At the end of the reaction period, sodium dodecyl sulfonate-polyacrylamide gel electrophoresis (SDS-PAGE) was carried out with using aliquots of the reaction mixture. Protein band was stained with Coomassie brilliant blue and protein content of each band was determined with a SHIMAZU UV-265 scanmeter.
(§3) The inhibition ratio of cross-linking of proteins was estimated with the following equation. Inhibition ratio (%) = [(A - B)/A] x 100 [formula] wherein, A : degree of cross-link formation (containing no compound), and B : degree of cross-link formation (containing the compound).

[5] = test system: lysozyme; assay: Inhibition of cross-linking of proteins (SDS-PAGE), lysozyme with fructose; format: biochemical; settings: Protein Lysozyme 10mg/ml, compound 5mM, fructose 400mM, pH 7.4, 37°C for 7 days
Method: as §2, §3

Row | Compound | Non-toxic dose [1] [mg/kg] | LD50 ([2]; rat (female)) [mg/kg] | LD50 ([2]; rat (male)) [mg/kg] | Inhibition ratio (%) [3] [%] | Inhibition ratio (%) [4] [%] | Inhibition ratio (%) [5] [%]
1 | N=C(N)NN [Aminoguanidine, reference compound] | 30 | 1300 | 1900 | 86.9 | 70.7 | 59.3
2 | NNC(=O)[C@H]1C[C@@]2(NC(=O)NC2=O)c2cc(F)ccc2O1 [Example 1, (2R,4R)-6-Fluoro-2',5'-dioxospiro[chroman-4,4'-imidazolidine]-2-carbohydrazide] | – | > 4000 | > 4000 | 87.3 | – | –
3 | NNC(=O)[C@H]1C[C@]2(NC(=O)NC2=O)c2cc(F)ccc2O1 [Example 2, (2R,4S)-6-Fluoro-2',5'-dioxospiro[chroman-4,4'-imidazolidine]-2-carbohydrazide] | – | – | – | 88.6 | – | –
4 | NNC(=O)[C@@H]1C[C@@]2(NC(=O)NC2=O)c2cc(F)ccc2O1 [Example 3, (2S,4R)-6-Fluoro-2',5'-dioxospiro[chroman-4,4'-imidazolidine]-2-carbohydrazide] | – | – | – | 88.1 | – | –
5 | O=C1NC(=O)[C@@]2(C[C@@H](C(=O)NNC(=O)C(F)(F)F)Oc3ccc(F)cc32)N1 [Example 7, (2S, 4S)-6-Fluoro-2',5'-dioxo-N'-trifluoroacetylspiro[chroman-4,4'-imidazolidine]-2-carbohydrazide] | – | – | – | 21.3 | – | –
6 | NNC(=O)[C@@H]1C[C@]2(NC(=O)N(N)C2=O)c2cc(F)ccc2O1 [Example 9, (2S,4S)-1'-Amino-6-fluoro-2',5'-dioxospiro[chroman-4,4'-imidazolidine]-2-carbohydrazide] | – | – | – | 86.6 | – | –
7 | NC(=O)[C@@H]1C[C@]2(NC(=O)N(N)C2=O)c2cc(F)ccc2O1 [Example 10, (2S,4S)-1'-Ainino-6-fluoro-2',5'-dioxospiro[chroman-4,4'-imidazolidine]-2-carboxamide] | – | – | – | 19.7 | – | –
8 | NNC(=O)[C@@H]1C[C@]2(NC(=O)NC2=O)c2cc(F)ccc2O1 [Reference Example 2, (2S,4S)-6 -Fluoro-2',5'-dioxospiro[chroman-4,4'-imidazolidine]-2-carbohydrazide] | > 2000 | > 4000 | > 4000 | 88.7 | 88.7 | 67.4
9 | CNNC(=O)[C@@H]1C[C@]2(NC(=O)NC2=O)c2cc(F)ccc2O1 [Reference Example 3, (2S,4S)-6-Fluoro-N'-methyl-2',5'-dioxospiro[chroman-4,4'-imidazolidine]-2-carbohydrazide] | – | – | – | 41.6 | – | –
10 | O=C1NC(=O)[C@@]2(C[C@@H](C(=O)NNc3ccccc3)Oc3ccc(F)cc32)N1 [Reference Example 4, (2S,4S)-6-Fluoro-2',5'-dioxo-N'-phenylspiro[chroman-4,4'-imidazolidine]-2-carbohydrazide] | – | – | – | 17.8 | – | –
